Consider six compounds from US7951805B2, “Heterocyclic derivatives and their use as mediators of stearoyl-CoA desaturase” (Xenon Pharmaceuticals Inc., priority 2004, dated 2011).

As usually defined, the melting point is the temperature of the solid-liquid transition.

The compound `Cl.O=C(NCCC1CC1)c1ccc(N2CCC(Nc3ccc(F)cc3C(F)(F)F)CC2)nn1` yielded a melting point of 134 to 137 °C.
Next, `Cl.O=C(NCCCC1CC1)c1ccc(N2CCC(Nc3ccccc3C(F)(F)F)CC2)nn1`: 117 to 121 °C.
The compound `CCCCCNC(=O)c1ccc(N2CCC(Nc3ccc(F)cc3C(F)(F)F)CC2)nn1.Cl` yielded a melting point of 136 to 139 °C.
For `Cl.O=C(NCCCC1CC1)c1ccc(N2CCC(Nc3ccc(F)cc3C(F)(F)F)CC2)nn1`, the melting point is 143 to 147 °C.
In the case of `Cl.O=C(NCCC1CC1)c1ccc(N2CCC(Nc3ccccc3C(F)(F)F)CC2)nn1`, the melting point lay in the range of 158 to 163 °C.
`O=C(NCCCC1CC1)c1ccc(N2CCC(N3C(=O)C(F)(F)c4ccccc43)CC2)nn1` yielded a melting point of 51 to 53 °C.
